One test concerns the target SRC (Homo sapiens, UniProt P12931). As to the kind of experiment: bio-layer interferometry (biotinylated SRC on SSA sensor, Octet K2). The class given is binding. Background: Biolayer interferometry detects binding as a change in optical thickness at a sensor tip.
For another test, the target named is AKT1 (Homo sapiens, UniProt P31749). Kind of test: bio-layer interferometry (biotinylated active AKT1, Carna […]-101, on SSA sensor, Octet K2). The class given is binding.

In general, Kd refers to the free concentration of one partner at which half of the binding sites on the other are occupied at equilibrium, for simple one-to-one binding. Lower therefore signals tighter binding.

Chain of AKT1 (P31749 whole entry): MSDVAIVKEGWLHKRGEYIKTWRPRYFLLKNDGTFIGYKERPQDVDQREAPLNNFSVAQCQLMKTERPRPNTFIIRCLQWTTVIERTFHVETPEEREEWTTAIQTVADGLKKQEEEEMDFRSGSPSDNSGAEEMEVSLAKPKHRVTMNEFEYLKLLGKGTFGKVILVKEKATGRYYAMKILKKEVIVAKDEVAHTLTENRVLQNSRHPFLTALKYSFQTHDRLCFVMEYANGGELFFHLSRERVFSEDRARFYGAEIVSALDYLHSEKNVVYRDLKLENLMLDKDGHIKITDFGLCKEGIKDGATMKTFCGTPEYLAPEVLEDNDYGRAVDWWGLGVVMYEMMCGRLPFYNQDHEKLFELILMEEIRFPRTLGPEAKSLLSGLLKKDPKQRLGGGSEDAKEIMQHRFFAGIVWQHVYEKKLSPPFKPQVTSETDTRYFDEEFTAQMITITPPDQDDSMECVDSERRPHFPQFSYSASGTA
Chain of SRC (P12931 2-536): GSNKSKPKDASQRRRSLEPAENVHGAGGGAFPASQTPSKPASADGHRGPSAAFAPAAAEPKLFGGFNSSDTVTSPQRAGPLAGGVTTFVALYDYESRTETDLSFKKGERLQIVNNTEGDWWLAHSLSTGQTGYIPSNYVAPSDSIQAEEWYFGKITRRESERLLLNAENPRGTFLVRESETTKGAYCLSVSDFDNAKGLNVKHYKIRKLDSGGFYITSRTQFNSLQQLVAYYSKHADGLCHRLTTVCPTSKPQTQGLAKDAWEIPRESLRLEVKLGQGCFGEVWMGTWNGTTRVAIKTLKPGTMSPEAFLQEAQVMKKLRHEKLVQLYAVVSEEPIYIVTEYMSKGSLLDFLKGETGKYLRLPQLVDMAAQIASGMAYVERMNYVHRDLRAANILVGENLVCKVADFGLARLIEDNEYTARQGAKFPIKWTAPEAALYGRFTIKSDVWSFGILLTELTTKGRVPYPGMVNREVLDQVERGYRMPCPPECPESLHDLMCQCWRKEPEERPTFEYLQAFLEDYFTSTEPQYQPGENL

On to `O=c1cc(-c2ccc(O)c(O)c2)oc2cc(O)cc(O)c12` [Luteolin], for which the results for the Kd at SRC and on AKT1 were 1.7 µM and 7.86 µM, respectively.
